Assay results published in patent US11666533B2, “Emulsion formulations of multikinase inhibitors” (Cloudbreak Therapeutics, LLC, priority 2018, dated 2023).
≈ marks a conversion by molar mass, not a printed value.

Assays:
[1] = Solubilizer screen for nintedanib (Example 3); format: physicochemical; details: for pH: pH of filtrate
Protocol: Tare 1.5 mL Eppendorf tube 2. […] Add solubilizer and record weight 4. Add water pH 5 (except F3 & F4) and record weight 5. Beadbeater mix for 120 seconds […] Place on rotating mixer for overnight at ambient temperature 7. Filter through 0.2 μm SPIN-X centrifuge filter 8. Measure pH of filtrate 9. Assay filtrate using CBT-001 standard solution

[2] = Solubility of nintedanib in a representative emulsion system (F70); format: physicochemical; details: aqueous with cosolvent or surfactant or cyclodextrin; emulsion system: castor oil 1, polysorbate 80 1, polyoxyl-35 castor oil 2, water 95, none in Table 6
Excerpt: Various emulsion systems were identified for investigation based on the solubilizer results.

pH ([1]; solubilizer BZA): 5.6
pH ([1]; solubilizer BZK): 5.6
pH ([1]; solubilizer EtOH): 6.1
pH ([1]; solubilizer PEG 400): 5.6
pH ([1]; solubilizer PEG 8000): 6.0
pH ([1]; solubilizer PG): 6.0
pH ([1]; solubilizer PLXMR 188): 6.5
pH ([1]; solubilizer PLXMR 407): 6.3
pH ([1]; solubilizer polysorbate 20): 6.6
pH ([1]; solubilizer polysorbate 80): 6.7
Nintedanib solubility ([1]; solubilizer BZA (1% benzyl alcohol in water, F-1)): 0.01 mg/g
Nintedanib solubility ([1]; solubilizer BZK (1% in water, F-5)): 0.20 mg/g
Nintedanib solubility ([1]; solubilizer Castor oil (99.5%, F-3)): 0.37 mg/g
Nintedanib solubility ([1]; solubilizer EtOH (1% ethanol in water, F-2)): 0.01 mg/g
Nintedanib solubility ([1]; solubilizer Mineral oil (99.5%, F-4)): 0.00 mg/g
Nintedanib solubility ([1]; solubilizer PEG 400 (5% in water, F-10)): 0.17 mg/g
Nintedanib solubility ([1]; solubilizer PEG 8000 (2% in water, F-11)): 0.01 mg/g
Nintedanib solubility ([1]; solubilizer PG (1% propylene glycol in water, F-12)): 0.01 mg/g
Nintedanib solubility ([1]; solubilizer PLXMR 188 (1% Poloxamer 188 in water, F-8)): 0.01 mg/g
Nintedanib solubility ([1]; solubilizer PLXMR 407 (1% Poloxamer 407 in water, F-9)): 0.01 mg/g
Nintedanib solubility ([1]; solubilizer polysorbate 20 (1% in water, F-6)): 0.06 mg/g
Nintedanib solubility ([1]; solubilizer polysorbate 80 (1% in water, F-7)): 0.25 mg/g
solubility [2]: 3000 to 5000 µg/mL (≈ 5.56 to 9.27 mM)
SMILES: COC(=O)c1ccc2c(c1)NC(=O)/C2=C(\Nc1ccc(N(C)C(=O)CN2CCN(C)CC2)cc1)c1ccccc1 [nintedanib]
